≈ marks a conversion by molar mass, not a printed value. Where two headings read alike, the source gives them in different places.
Assays:
[1] = target: T1, E. coli K12 PBP3 (Escherichia coli, UniProt P0AD68); test: biochemical; format: binding
T1 construct: made in house
How it was run: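 Fluorescence polarization (ex 490/em 520 nm) competition of inhibitors against Bocillin-FL at 0.1 μM, read up to 60 min. Final PBP levels: E. coli PBP3 1.5 μM; A. baumannii PBP2 2.5 μM, PBP3 0.2 μM in Tris pH 8.0/NaCl/glycerol/Tween 20; N. gonorrhoeae PBP2 […] in Hepes pH 8.0/NaCl/glycerol. EC50 = concentration halving PBP-bound Bocillin-FL.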

[2] = target: T2, P. aeruginosa PBP3 (Pseudomonas aeruginosa, UniProt G3XD46); test: Bocillin-FL fluorescence polarization competition binding assay, P. aeruginosa PBP3; conditions: fluorescence polarization competition binding assay using Bocillin-FL
T2 construct: made in house
How it was run: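 Binding of boronic acid inhibitors to purified Pseudomonas aeruginosa (PA01) PBP3 was measured by fluorescence polarization competition with Bocillin-FL, a fluorescent penicillin V. Reactions of 80 μl contained 0.75 μM PBP3 and 0.1 μM Bocillin-FL in 50 mM Hepes (pH 8.0), 300 mM NaCl and 5% (v/v) glycerol, in black 384-well plates. FP (Excitation 490 nm, Emission 520 nm) was read for up to 60 minutes. EC50 is the concentration that halves PBP-bound Bocillin-FL.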

[3] = system: N. gonorrhoeae ATCC 49226; test: Liquid broth MIC in Fastidious broth; format: cell-based; conditions: Neisseria gonorrhoeae, ATCC49226, Fastidious broth
How it was run: (§1)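 Colonies were swabbed from chocolate agar after 24 h growth and standardised by optical density at 600 nm. Compounds were serially diluted twofold in Fastidious broth, and bacteria added to give 5×10^5 CFU/mL. After about 24 h at 36 °C in 5% CO2, the lowest concentration allowing under 10% growth was taken as MIC.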

[4] = system: N. gonorrhoeae FA1090; test: Liquid broth MIC in Fastidious broth; format: cell-based; conditions: Neisseria gonorrhoeae, Fastidious broth
How it was run: as §1

[5] = system: N. gonorrhoeae H041; test: Liquid broth MIC in Fastidious broth; format: cell-based; conditions: Neisseria gonorrhoeae
How it was run: (§2)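 Strains bearing mosaic PBP2 grown 24 h on chocolate agar (36° C, 5% CO2), suspended in saline and added to 2-fold compound dilutions in Fastidious broth at 5×10^5 CFU/mL. After ~24 hours at 36° C with 5% CO2, MIC taken visually as lowest well with <10% growth relative to full growth.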

[6] = system: N. gonorrhoeae WHO G; test: Liquid broth MIC in Fastidious broth; format: cell-based; conditions: Neisseria gonorrhoeae, Fastidious broth
How it was run: as §1

[7] = system: N. gonorrhoeae WHO K; test: Liquid broth MIC in Fastidious broth; format: cell-based; conditions: Neisseria gonorrhoeae
How it was run: as §2

[8] = system: N. gonorrhoeae WHO L; test: Liquid broth MIC in Fastidious broth; format: cell-based; conditions: Neisseria gonorrhoeae, Fastidious broth
How it was run: as §1

[9] = system: N. gonorrhoeae WHO Q; test: Liquid broth MIC in Fastidious broth; format: cell-based; conditions: Neisseria gonorrhoeae
How it was run: as §2

[10] = system: N. gonorrhoeae WHO Z; test: Liquid broth MIC in Fastidious broth; format: cell-based; conditions: Neisseria gonorrhoeae
How it was run: as §2

[11] = N. gonorrhoeae strain ATCC 49226, read-out: Minimum Inhibitory Concentration, N. gonorrhoeae ATCC 49226
[12] = N. gonorrhoeae strain FA1090, read-out: Minimum Inhibitory Concentration, N. gonorrhoeae FA1090
[13] = H041, read-out: Minimum Inhibitory Concentration, N. gonorrhoeae H041
[14] = N. gonorrhoeae strain WHO G, read-out: Minimum Inhibitory Concentration, N. gonorrhoeae WHO G
[15] = read-out: Minimum Inhibitory Concentration, N. gonorrhoeae WHO K
[16] = N. gonorrhoeae strain WHO L, read-out: Minimum Inhibitory Concentration, N. gonorrhoeae WHO L
[17] = read-out: Minimum Inhibitory Concentration, N. gonorrhoeae WHO Q
[18] = read-out: Minimum Inhibitory Concentration, N. gonorrhoeae WHO Z
[19] = N. gonorrhoeae ATCC 49226, read-out: Minimum Inhibitory Concentration, ATCC 49226
[20] = N. gonorrhoeae FA1090, read-out: Minimum Inhibitory Concentration, FA1090
[21] = H041, read-out: Minimum Inhibitory Concentration, H041
[22] = N. gonorrhoeae WHO G, read-out: Minimum Inhibitory Concentration, WHO G
[23] = read-out: Minimum Inhibitory Concentration, WHO K
[24] = N. gonorrhoeae WHO L, read-out: Minimum Inhibitory Concentration, WHO L
[25] = read-out: Minimum Inhibitory Concentration, WHO Q
[26] = read-out: Minimum Inhibitory Concentration, WHO Z

T2 sequence (G3XD46 whole entry): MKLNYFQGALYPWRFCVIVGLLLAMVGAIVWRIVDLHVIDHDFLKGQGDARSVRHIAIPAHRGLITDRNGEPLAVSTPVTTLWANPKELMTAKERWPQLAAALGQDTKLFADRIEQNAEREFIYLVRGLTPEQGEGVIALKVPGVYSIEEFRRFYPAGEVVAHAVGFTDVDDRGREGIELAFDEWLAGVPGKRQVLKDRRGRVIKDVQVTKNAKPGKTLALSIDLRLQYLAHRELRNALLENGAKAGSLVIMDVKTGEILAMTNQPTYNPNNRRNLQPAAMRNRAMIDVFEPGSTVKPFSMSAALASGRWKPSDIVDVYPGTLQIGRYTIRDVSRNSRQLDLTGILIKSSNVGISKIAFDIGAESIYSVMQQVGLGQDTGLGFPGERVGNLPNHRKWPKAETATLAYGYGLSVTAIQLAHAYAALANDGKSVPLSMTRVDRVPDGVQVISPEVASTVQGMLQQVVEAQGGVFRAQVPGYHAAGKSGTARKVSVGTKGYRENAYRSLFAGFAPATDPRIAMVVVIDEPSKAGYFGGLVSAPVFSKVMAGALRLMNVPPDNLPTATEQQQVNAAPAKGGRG
T1 sequence (P0AD68 1-577): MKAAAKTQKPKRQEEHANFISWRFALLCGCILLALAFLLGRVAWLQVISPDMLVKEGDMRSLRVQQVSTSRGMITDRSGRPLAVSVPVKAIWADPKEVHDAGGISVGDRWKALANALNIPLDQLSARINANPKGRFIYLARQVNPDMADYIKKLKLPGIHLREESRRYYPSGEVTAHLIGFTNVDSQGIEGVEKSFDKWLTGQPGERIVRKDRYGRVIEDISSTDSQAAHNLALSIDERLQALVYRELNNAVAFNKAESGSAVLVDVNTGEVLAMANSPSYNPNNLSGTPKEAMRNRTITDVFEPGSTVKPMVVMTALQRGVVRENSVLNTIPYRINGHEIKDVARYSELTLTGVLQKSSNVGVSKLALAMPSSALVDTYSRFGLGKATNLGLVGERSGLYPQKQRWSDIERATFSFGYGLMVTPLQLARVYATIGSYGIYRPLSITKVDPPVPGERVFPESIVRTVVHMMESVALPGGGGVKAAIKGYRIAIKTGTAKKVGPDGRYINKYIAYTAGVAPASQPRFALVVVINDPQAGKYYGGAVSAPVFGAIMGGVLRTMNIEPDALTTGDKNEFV

| Structure (SMILES) | EC50 [1] [µM] | P. aeruginosa PBP3 Potency [2] | MIC [3, 11] [µg/mL] | MIC [4, 12] [µg/mL] | MIC [5, 13] [µg/mL] | MIC [6, 14] [µg/mL] | MIC [7, 15] [µg/mL] | MIC [8, 16] [µg/mL] | MIC [9, 17] [µg/mL] | MIC [10, 18] [µg/mL] | MIC [3, 19] [µg/mL] | MIC [4, 20] [µg/mL] | MIC [5, 21] [µg/mL] | MIC [6, 22] [µg/mL] | MIC [7, 23] [µg/mL] | MIC [8, 24] [µg/mL] | MIC [9, 25] [µg/mL] | MIC [10, 26] [µg/mL] |
| --- | --- | --- | --- | --- | --- | --- | --- | --- | --- | --- | --- | --- | --- | --- | --- | --- | --- | --- |
| CS(=O)(=O)N1CCN(C(=O)N[C@@H](C(=O)N[C@H]2Cc3ccc(F)c(C(=O)O)c3OB2O)c2cc(F)c(O)c(O)c2Cl)C1=O (single isomer, unassigned) [Example 189] | < 30 | D (D represents a potency <10 μM) | 16 to 32 (≈ 25.3 to 50.6 µM) | 4 to 8 (≈ 6.32 to 12.6 µM) | > 64 | 16 to 32 (≈ 25.3 to 50.6 µM) | 16 to 32 (≈ 25.3 to 50.6 µM) | > 64 | 16 to 32 (≈ 25.3 to 50.6 µM) | 16 to 32 (≈ 25.3 to 50.6 µM) |  |  |  |  |  |  |  |  |
| NCCN1CCN(C(=O)N[C@@H](C(=O)N[C@H]2Cc3cccc(C(=O)O)c3OB2O)c2c(O)cc(O)cc2F)C(=O)C1=O (single isomer, unassigned) [Example 194] | < 30 | D (D represents a potency <10 μM) | 16 to 32 (≈ 27.9 to 55.8 µM) | 1 to 2 (≈ 1.74 to 3.49 µM) | > 64 | 4 to 8 (≈ 6.98 to 14 µM) | > 64 | > 64 | > 64 | > 64 |  |  |  |  |  |  |  |  |
| NCCCN1CCN(C(=O)N[C@@H](C(=O)N[C@H]2Cc3cccc(C(=O)O)c3OB2O)c2c(O)cc(O)cc2F)C(=O)C1=O (single isomer, unassigned) [Example 195] | < 30 | D (D represents a potency <10 μM) | 16 to 32 (≈ 27.2 to 54.5 µM) | 1 to 2 (≈ 1.7 to 3.41 µM) | > 64 | 4 to 8 (≈ 6.81 to 13.6 µM) | > 64 | > 64 | > 64 | > 64 |  |  |  |  |  |  |  |  |
| NCCN1CCN(C(=O)N[C@@H](C(=O)N[C@H]2Cc3cccc(C(=O)O)c3OB2O)c2ccc(O)c([N+](=O)[O-])c2)C(=O)C1=O (single isomer, unassigned) [Example 199] | < 30 | D (D represents a potency <10 μM) | 16 to 32 (≈ 27.4 to 54.8 µM) | 1 to 2 (≈ 1.71 to 3.42 µM) | > 64 | 16 to 32 (≈ 27.4 to 54.8 µM) | > 64 | > 64 | > 64 | > 64 |  |  |  |  |  |  |  |  |
| NCCN1CCN(C(=O)N[C@H](C(=O)N[C@H]2Cc3cccc(C(=O)O)c3OB2O)c2ccc(O)c([N+](=O)[O-])c2)C(=O)C1=O (single isomer, unassigned) [Example 200] | > 500 | C (C represents a potency between 10 and 30 μM) | > 64 | 4 to 8 (≈ 6.85 to 13.7 µM) | > 64 | > 64 | > 64 | > 64 | > 64 | > 64 |  |  |  |  |  |  |  |  |
| CCN1CCN(C(=O)N[C@H](C(=O)N[C@H]2Cc3cccc(C(=O)O)c3OB2O)c2ccc(C(=O)O)c(F)c2Cl)C(=O)C1=O (single isomer, unassigned) [Example 202] | 30 to 500 | C (C represents a potency between 10 and 30 μM) |  |  |  |  |  |  |  |  | 16 to 32 (≈ 26.5 to 52.9 µM) | 4 to 8 (≈ 6.61 to 13.2 µM) | > 64 | 16 to 32 (≈ 26.5 to 52.9 µM) | > 64 | > 64 | > 64 | 16 to 32 (≈ 26.5 to 52.9 µM) |
| CCN1CCN(C(=O)N[C@@H](C(=O)N[C@H]2Cc3cccc(C(=O)O)c3OB2O)c2ccc(C(=O)O)c(F)c2Cl)C(=O)C1=O (single isomer, unassigned) [Example 203] | < 30 | D (D represents a potency <10 μM) |  |  |  |  |  |  |  |  | 4 to 8 (≈ 6.61 to 13.2 µM) | 0.25 to 0.5 (≈ 0.413 to 0.827 µM) | 16 to 32 (≈ 26.5 to 52.9 µM) | 4 to 8 (≈ 6.61 to 13.2 µM) | 16 to 32 (≈ 26.5 to 52.9 µM) | > 64 | 4 to 8 (≈ 6.61 to 13.2 µM) | 4 to 8 (≈ 6.61 to 13.2 µM) |
